{
  "source": "paper PMC3387161",
  "about": "“Small Molecules Targeted to a Non-Catalytic “RVxF” Binding Site of Protein Phosphatase-1 Inhibit HIV-1” (PLoS ONE, 2012)",
  "molecular_target": "PP1α (Homo sapiens, UniProt P62136)",
  "sequence (P62136 whole entry)": "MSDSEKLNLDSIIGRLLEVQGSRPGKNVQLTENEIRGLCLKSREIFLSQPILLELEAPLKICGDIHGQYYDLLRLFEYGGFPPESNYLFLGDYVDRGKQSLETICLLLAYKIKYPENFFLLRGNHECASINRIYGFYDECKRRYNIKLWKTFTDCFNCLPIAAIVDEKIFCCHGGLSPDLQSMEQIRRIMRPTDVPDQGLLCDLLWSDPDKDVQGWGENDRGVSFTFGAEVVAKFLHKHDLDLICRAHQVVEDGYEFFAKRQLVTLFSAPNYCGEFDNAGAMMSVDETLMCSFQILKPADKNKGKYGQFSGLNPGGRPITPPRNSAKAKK",
  "assay": "Nuclear and cytoplasmic distribution of PP1α-EGFP in HeLa and 293T cells",
  "assay_type": "cell-based",
  "parameters": "expressed in transfected cells; host or cells: HeLa; 293T",
  "description": "In live cells, PP1α is dynamically distributed between the cytoplasm and the nucleus, and its shuttling into the nucleus is thought to be regulated by its interaction with sds22 and inhibitor-3 regulatory subunits. […] We analyzed the effect of 1H4 on nuclear localization of PP1α in HeLa cells that were transfected with Flag-Tat and PP1α-EGFP expression vectors and treated with 1H4 or a control compound for 18hrs. In untreated cells, PP1α was localized in the perinuclear area and cytoplasm (Fig. 8A). Co-expression of Tat increased nuclear and perinuclear localization of PP1α (Fig. 8B). Co-expression of mutant Tat ^35QACA^38 in contrast led to a more homogeneous distribution of PP1α (Fig. 8C). […] To achieve quantifiable results, we measured fluorescence of PP1α-EGFP in nuclear and cytoplasmic fractions of 293T cells that were transfected with PP1α-EGFP or PP1α-EGFP and Tat expression vectors and treated with 1H4. […]\nFigure 8 1H4 compound disrupts the Tat-mediated translocation of PP1 into the nucleus. […] Fluorescence was measured in the nuclear and cytoplasmic fractions using Perkin-Elmer Luminoscan. […]\nNuclear and cytoplasmic extracts were prepared using a modification of previously described method. […] Fluorescence was measured in cytoplasmic and nuclear lysates at 480 nm excitation and 510 nm emission on Luminescence Spectrometer LS50B (Perkin-Elmer).",
  "data": [
    {"smiles": "COCCNC(=O)COC(=O)c1c2c(nc3ccccc13)/C(=C/c1ccc(O)cc1)CCC2", "note": "[1H4]", "values": [
      {"measurement": "Nuclear PP1α-EGFP fluorescence in fractionated cells", "setting": "293T cells, absence and presence of Tat, versus untreated or 1G3", "result": "significant decrease of nuclear PP1α-EGFP"},
      {"measurement": "Nuclear localization of PP1α in presence of Tat (fluorescence microscopy)", "setting": "HeLa cells, Flag-Tat and PP1α-EGFP, 10 µM, 18 hours", "result": "diminished nuclear localization of PP1α"}
    ]}
  ]
}
